The source of these data is ChEMBL document CHEMBL1125352, “Synthesis of biologically active taxol analogues with modified phenylisoserine side chains” (1992).

What all share (type): functional
Assay [1] has as its system B16. As to the kind of experiment: Cytotoxicity against B16 melanoma cell line. The conditions noted are these: Mus musculus, read-out: ED50 (the source's name).
Assay [2] can be described thus: Ratio of ED50 of taxol to ED50 from cytotoxicity against B16 melanoma cell lines.
For assay [3], the target named is T1, Tubulin (Bos taurus) (UniProt Q6B856+Q862L2+Q862F3). As to the kind of experiment: Concentration to stimulate the assembly of tubulin into microtubules.
Assay [4] in a line: Ratio of ED50 of taxol to ED50 from tubulin binding assay.
The target of assay [5] is T1, Tubulin (Bos taurus). As to the kind of experiment: Concentration to stimulate the assembly of tubulin into microtubules at a dose of […].
Assay [6] relates to B16. As to the kind of experiment: Cytotoxicity against B16 melanoma cell line.62% inhibition at 42 uM. The conditions noted are these: Mus musculus, read-out: ED50 (the source's name).
Assay [7] concerns B16. As to the kind of experiment: Cytotoxicity against B16 melanoma cell line.40% inhibition at 1 uM. The conditions noted are these: Mus musculus, read-out: ED50 (the source's name).

`CC(=O)O[C@H]1C(=O)[C@@]2(C)[C@H]([C@H](OC(=O)c3ccccc3)[C@]3(O)C[C@H](OC(=O)[C@H](O)[C@@H](NC(=O)c4ccc(Cl)cc4)c4ccccc4)C(C)=C1C3(C)C)[C@]1(OC(C)=O)CO[C@@H]1C[C@@H]2O`: in assay [1], the EC50 was determined as 43 nM. In addition, the figures for the Ratio in assay [2] and in assay [4] were 1.5 and 2.4, respectively. The compound further displayed an ED50 in assay [3] of 1.7 µM.
As to `CC(=O)O[C@H]1C(=O)[C@@]2(C)[C@H]([C@H](OC(=O)c3ccccc3)[C@]3(O)C[C@H](OC(=O)[C@H](O)[C@@H](NC(=O)c4ccccc4)c4ccc(Cl)cc4)C(C)=C1C3(C)C)[C@]1(OC(C)=O)CO[C@@H]1C[C@@H]2O`, in assay [1], the EC50 came out at 61 nM. For the same compound, the Ratio amounted to 2.2 in assay [2] and 1.9 in assay [4]. Moreover, in assay [3], the ED50 came out at 1.3 µM.
As to `O=C(N[C@@H](c1ccccc1)[C@@H](O)C(=O)O)c1ccccc1` (relative stereo), the results for the Ratio in assay [2] and in assay [4] were above 360 and above 14, respectively. Further, the ED50 in assay [5] is above 10 µM. Also, the EC50 in assay [6] is above 10 µM.
For `CC(=O)O[C@H]1C(=O)[C@@]2(C)[C@H]([C@H](OC(=O)c3ccccc3)[C@]3(O)C[C@H](O)C(C)=C1C3(C)C)[C@]1(OC(C)=O)CO[C@@H]1C[C@@H]2O` [BACCATIN III], the Ratio in assay [2] is above 36; in assay [4] it was above 14. Further, the EC50 in assay [7] was above 1000 nM. In addition, in assay [5], the ED50 is above 10 µM.
As for `CC(=O)O[C@H]1C(=O)[C@@]2(C)[C@H]([C@H](OC(=O)c3ccccc3)[C@]3(O)C[C@H](OC(=O)[C@H](O)[C@@H](NC(=O)c4ccccc4)c4ccccc4)C(C)=C1C3(C)C)[C@]1(OC(C)=O)CO[C@@H]1C[C@@H]2O` [PACLITAXEL], the EC50 in assay [1] was 28 nM. The Ratio in assay [2] and in assay [4] was 1 in each case. The ED50 in assay [3] was determined as 0.7 µM.
